Type in all cases: cell-based
Experiment [1] concerns p-ERK. The experiment can be described thus: Cell p-ERK assay (HTRF, Advance ERK phospho-T202/Y204 kit) in AsPC-1 cells. To be noted: ASPC1; AsPC-1, human pancreatic cancer cell strain, KRAS G12D mutation; 3 h compound incubation. The protocol:
AsPC-1 cells were purchased from ATCC, Cat. No. CRL-1682; NCI-H441 cells were purchased from ATCC, Cat. No. HTB-174; RPMI-1640 medium was purchased from Gibco, Cat. No. 11875-093; FBS was purchased from Gibco, Cat. No. 10099-141C; penicillin/streptomycin double-antibiotic solution (PS) was purchased from Gibco, Cat. No. 15140-122; trypsin (containing EDTA) was purchased from Gibco, Cat. No. 25200-072; DMSO was purchased from VWRAMRESCO, Cat. No. 0231-500ML; 96-well cell culture plates were purchased from Corning, Cat. No. 3599; white-bottomed, opaque 96-well plates were purchased from Cisbio, Cat. No. 66PL96025; Advance ERK phospho-T202/Y204 kit was purchased from Cisbio, Cat. No. 64AERPEH; cell counter was purchased from CHEMOMETEC, model: NC-200; microplate reader was purchased from PerkinElmer, model: EnVision.
AsPC-1, a human pancreatic cancer cell strain endogenously containing a KRAS^G12D mutation, was cultured in a complete medium containing RPMI-1640 + 10% FBS + 1% PS. NCI-H441, a human non-small cell lung cancer cell strain endogenously containing a KRAS^G12V mutation, was cultured in a complete medium containing RPMI-1640 + 10% FBS + 1% PS.
The cells were digested with trypsin (containing EDTA), collected in their corresponding complete media, and counted. The density of the cell suspensions was adjusted with their corresponding complete media, and AsPC-1 cells (10000 cells/well) or NCI-H441 cells (20000 cells/well) were seeded into a 96-well cell culture plate, with the volume of the medium in each well being 80 µL. The cell culture plate was incubated in an incubator at 37 °C with 5% CO2 overnight. A series of 3.16-fold gradient dilutions of a 1000× compound stock solution were prepared with DMSO, and then diluted 200-fold with the complete medium described above to give 5× compound stock solutions. On the day after cell seeding, 20 µL of the 5× compound stock solution was added to each cell culture well. As a result, the final concentration of the compound in the cell culture well became 1×, and the DMSO content in the well was 0.1%. In addition to the compound-treated wells described above, cell-containing DMSO control wells were also set. A complete medium containing 0.5% DMSO was added at 20 µL/well. After the mixture was well mixed, the culture plate was incubated in the incubator at 37 °C with 5% CO2 for another 3 h. The medium was then removed from the culture wells, and 50 µL of cell lysis buffer (from Advance ERK phospho-T202/Y204 kit) was added to each well. The mixture was well mixed, incubated for 30 min, and then transferred to a white-bottomed, opaque 96-well assay plate at 16 µL/well, and separately, 16 µL of cell lysis buffer was added to additional wells (serving as blank wells) in the assay plate. After the transfer was completed, 4 µL of p-ERK HTRF antibody mixture (from Advance ERK phospho-T202/Y204 kit) was added to each well of the assay plate, followed by a 4-hour incubation. The HTRF signal values (RLU) were then measured using a microplate reader, and the inhibition rate of the compound against p-ERK levels was calculated as follows: IR(%) = (RLUDMSO - RLUcompound)/(RLUDMSO - RLUblank) × 100%, where RLUDMSO is the average HTRF signal value from the DMSO control well samples, RLU is the average HTRF signal value from the blank well samples, and RLUcompound is the HTRF signal value from the compound-treated well samples. Using an XLfit software, the IR(%) values were plotted against the logarithm of the compound concentrations, and the dose-response curves were fitted using the four-parameter method to calculate the IC50 values.

Another experiment deals with AsPC-1 cells. Kind of experiment: 3D cell proliferation assay (CellTiter Glo-3D) in AsPC-1 cells. The conditions noted are these: ASPC1, 120 h; AsPC-1, human pancreatic cancer cell strain, KRAS G12D mutation; 3D culture, 2% FBS, 5 days; read-out: AsPC-1 AP IC50. An excerpt: MIA PaCa-2 cells were purchased from ATCC, Cat. No. CRL-1420; AsPC-1 cells were purchased from ATCC, Cat. No. CRL-1682; NCI-H441 cells were purchased from ATCC, Cat. No. HTB-174; NCI-H1975 cells were purchased from ATCC, Cat. No. CRL-5908; DMEM medium was purchased from Gibco, Cat. No. 11995-065; RPMI-1640 medium was purchased from Gibco, Cat. No. 11875-093; FBS was purchased from Gibco, Cat. No. 10099-141C; penicillin/streptomycin double-antibiotic solution (PS) was purchased from Gibco, Cat. No. 15140-122; Horse serum was purchased from Gibco, Cat. No. 16050130; trypsin (containing EDTA) was purchased from Gibco, Cat. No. 25200-072; DMSO was purchased from VWRAMRESCO, Cat. No. 0231-500ML; 384-well cell culture plates were purchased from Corning, Cat. No. 3830; white-bottomed, opaque 384-well assay plates were purchased from Corning, Cat. No. 3570; CellTiter Glo-3D kit was purchased from Promega, Cat. No. G9683; cell counter was purchased from CHEMOMETEC, model: NC-200; microplate reader was purchased from PerkinElmer, model: EnVision.
MIA PaCa-2, a human pancreatic cancer cell strain endogenously containing a KRAS^G12Cmutation, was cultured in a complete medium containing DMEM + 10% FBS + 2.5% Horse serum + 1% PS. AsPC-1, a human pancreatic cancer cell strain endogenously containing a KRAS^G12D mutation, was cultured in a complete medium containing RPMI-1640 + 10% FBS + 1% PS. NCI-H441 cells, a human lung cancer cell strain endogenously containing a KRAS^G12V mutation, were cultured in a complete medium containing RPMI-1640 + 10% FBS + 1% PS. NCI-H1975, a KRAS wild-type human lung cancer cell strain whose cell proliferation […], was cultured in a complete medium containing RPMI-1640 + 10% FBS + 1% PS.
The cells were digested with trypsin (containing EDTA), collected in their respective low-serum complete media containing 2% FBS (for MIA Paca-2 cell culture: DMEM + 2% FBS + 0.5% Horse serum + 1% PS), and counted. After the cell density was adjusted as required, MIA PaCa-2 cells (200 cells/well), AsPC-1 cells (800 cells/well), NCI-H441 cells (800 cells/well), or NCI-H1975 cells (400 cells/well) were seeded into a 384-well cell culture plate, with the volume of the medium in each well being 45 µL. The cell culture plate was incubated in an incubator at 37 °C with 5% CO2 overnight. A series of 3.16-fold gradient dilutions of a 1000× compound stock solution were prepared with DMSO, and then diluted 100-fold with the complete medium containing 2% FBS described above to give 10× compound stock solutions. On the day after cell seeding, 5 µL of the 10× compound stock solution was added to each cell culture well. As a result, the final concentration of the compound in the cell culture well became 1×, and the DMSO content in the well was 0.1%. In addition to the compound-treated wells described above, cell-containing DMSO control wells (with 5 µL of the complete medium containing 1% DMSO added to each well) and cell-free medium control wells (containing 50 µL of the complete medium with 2% FBS) were also set. The culture plate was incubated in an incubator at 37 °C with 5% CO2 for another 5 days, and then 30 µL of CellTiter-Glo working solution was added to each well. The mixture was well mixed, incubated for 30 min, left to stand at room temperature for 30 min, and then transferred to a white-bottomed, opaque 384-well assay plate at 40 µL/well. The chemiluminescence values (RLU) were measured using a microplate reader, and the cell proliferation inhibition rate for each well was calculated: IR(%) = (RLUDMSO - RLUcompound)/(RLUDMSO - RLUblank) × 100%, where RLUDMSO is the average RLU signal value from the DMSO control well samples, RLUblank is the average RLU signal value from the medium control well samples, and RLUcompound is the RLU signal value from the compound-treated well samples. […]

In the next experiment the test system is NCI-H441 cells. The experiment can be described thus: 3D cell proliferation assay (CellTiter Glo-3D) in NCI-H441 cells. The conditions noted are these: Homo sapiens, NCI-H441, 120 h, NCI-H441, human lung cancer cell strain, KRAS G12V mutation; 3D culture, 2% FBS, 5 days; read-out: H441 AP IC50. Summed up: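 After a 5-day exposure at 37 °C to 3.16-fold serial dilutions (final DMSO 0.1%) in 2% FBS RPMI-1640, ATP luminescence (CellTiter-Glo 3D) was read. Cells were AsPC-1 (KRAS G12D) or NCI-H441 (KRAS G12V), 800 per well; inhibition used DMSO and medium-only controls, with four-parameter curve fitting giving IC50.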

Experiment [2] concerns p-ERK. Kind of experiment: Cell p-ERK assay (HTRF, Advance ERK phospho-T202/Y204 kit) in NCI-H441 cells. To be noted: Homo sapiens, NCI-H441, 3 h, NCI-H441, human non-small cell lung cancer cell strain, KRAS G12V mutation; 3 h compound incubation. Summed up: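 Phospho-ERK (T202/Y204) measured by HTRF in lysates of AsPC-1 (KRAS G12D) or NCI-H441 (KRAS G12V) cells after 3 h compound exposure at 37 °C in RPMI-1640 + 10% FBS, 0.1% DMSO. Inhibition normalised to DMSO and blank wells; IC50 by four-parameter fit.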

SMILES strings stand for the structures.

As for `CCn1c(-c2cc(C#CCN3CCS(=O)(=O)CC3)cnc2[C@H](C)OC)c2c3cc(ccc31)NC(=O)OC[C@H](NC(=O)[C@H]1[C@H](C)[C@@H]1C)C(=O)N1CCC[C@H](N1)C(=O)OCC(C)(C)C2` (atropisomer, axis not shown; (Ra)) [Compound Z36, (1r,2R,3S)-N-((7^3S,9S)-1^2-(5-(3-(1,1-dioxidothiomorpholino)prop-1-yn-1-yl)-2-((S)-1-methoxyethyl)pyridin-3-yl)-1^1-ethyl-(Ra)-3,3-dimethyl-6,8,12-trioxo-7^1,7^2,7^3,7^4,7^5,7^6-hexahydro-1^1H-5,11-dioxa-13-aza-1(3,5)-indola-7(3,1)-pyridazinaocycloundecan-9-yl)-2,3-dimethylcyclopropane-1-carboxamide], the IC50 amounted to 230 nM in the experiment with p-ERK [1], 374 nM in the experiment on AsPC-1 cells, 40.6 nM in the experiment with NCI-H441 cells and 40.4 nM in the experiment on p-ERK [2].
`CCn1cc2c(c1-c1cc(C#CCN3CCC(C#N)(CN)CC3)cnc1[C@H](C)OC)CC(C)(C)COC(=O)[C@@H]1CCCN(N1)C(=O)[C@@H](NC(=O)[C@H]1[C@@H]3COC[C@@H]31)Cc1nc(cs1)/C=C/2` (atropisomer, axis not shown; (Ra)) [Compound Z66]: the IC50 with p-ERK [1] came out at 0.16 nM; with AsPC-1 cells, 0.24 nM; in the experiment on NCI-H441 cells, 0.18 nM; with p-ERK [2], 0.38 nM.
The matching figures for `CCn1cc2c(c1-c1cc(C#CCN3CCC(C#N)(CO)CC3)cnc1[C@H](C)OC)CC(C)(C)COC(=O)[C@@H]1CCCN(N1)C(=O)[C@@H](NC(=O)[C@H]1[C@@H]3COC[C@@H]31)Cc1nc(cs1)/C=C/2` (atropisomer, axis not shown; (Ra)) [Compound Z104, (1R,5S,6r)-N-((4^2Z,8^3S,2E,6S)-(Ra)-1^5-(5-(3-(4-cyano-4-(hydroxymethyl)piperidin-1-yl)prop-1-yn-1-yl)-2-((S)-1-methoxyethyl)pyridin-3-yl)-1^1ethyl-12,12-dimethyl-7,9-dioxo-8^1,8^2,8^3,8^4,8^5,8^6-hexahydro-1^1H-10-oxa-4(4,2)-thiazola-8(1,3)-pyridazina-1(3,4)-pyrrolacyclotridecaphan-2-en-6-yl)-3-oxabicyclo[3.1.0]hexane-6-carboxamide]: 0.17 nM, 0.19 nM, 0.14 nM and 0.47 nM.
With `CO[C@@H](C)c1ncc(C#CCN2CCS(=O)(=O)CC2)cc1-c1c2c(nn1C(C)C)/C=C/c1csc(n1)C[C@H](NC(=O)CC1CC(CO)C1)C(=O)N1CCC[C@H](N1)C(=O)OCC(C)(C)C2` (stereo partly drawn) [Compound Z39, N-((4^2Z,8^3S,2E,6S)-1^5-(5-(3-(1,1-dioxidothiomorpholino)prop-1-yn-1-yl)-2-((S)-1-methoxyethyl)pyridin-3-yl)-1^1-isopropyl-12,12-dimethyl-7,9-dioxo-8^1,8^2,8^3,8^4,8^5,8^6-hexahydro-1^1H-10-oxa-4(4,2)-thiazola-8(1,3)-pyridazina-1(3,4)-pyrrolacyclotridecaphan-2-en-6-yl)-2-(3-(hydroxymethyl)cyclobutyl)acetamide], the IC50 with p-ERK [1] is 506 nM; in the experiment with p-ERK [2] it was 177 nM.

Source of the values: patent publication EP4772514A1, “MACROCYCLIC COMPOUNDS, PREPARATION METHOD THEREFOR, AND USE THEREOF” (Genfleet Therapeutics (Shanghai) Inc., priority 2023, dated 2025).
